The values that follow come from patent US7132447B2, “Substance FKI-1083 and process for producing the same” (The Kitasato Institute, priority 2001, dated 2006).

Molecules are shown by their SMILES. pIC50: −log10 of the molar value. ≈ marks a conversion by molar mass, not a printed value.

In test [1] the test system is Escherichia coli NIHJ JC-2 (IF012734). Put plainly: MIC by agar plate dilution method on nutrient agar medium. Type of test: cell-based. The conditions noted are these: NIHJJC2.
For test [2], the system named is Xanthomonas campestris pv. oryzae KB88. Put plainly: microbe, parasite or virus in culture. It is filed as cell-based.
The subject of a further test is Caenorhabditis elegans. Put plainly: Nematocidal activity, movement observed under microscope in 96 well plate. It is filed as in vivo. The protocol:
(§1) Methanol solution of FKI-1083 substance of the present invention was added to a 96 well plate (Corning Inc., the U.S.). […] A test medium (lecithin 0.01%, sodium hydrogen carbonate 7.5 mM, potassium chloride 7.5 mM, calcium chloride dihydrate 7.5 mM, and magnesium sulfate heptahydrate 7.5 mM) 250 μl was added thereto and shaken for 15 minutes. Approximately 10 Caenorhabditis elegans cultured on the agar medium for nematode growth [a medium in which E. coli was cultured on a medium consisting of bactoagar (DIFCO Inc., the U.S.) 1.7%, bactopeptone (DIFCO Inc., the U.S.) 0.5%, yeast extract (DIFCO Inc., the U.S.) 1.0%, sodium chloride 0.3%, cholesterol 0.0005%, calcium chloride 0.007%, magnesium sulfate 0.03%, dipotassium hydrogen phosphate 0.34%, and potassium dihydrogen phosphate 0.11%] were added thereto. Separately, a buffer solution 50 μl containing several numbers of nauplius larvae of Artemia salina hatched in the buffer (Tris 0.24%, sodium chloride 2.57%, magnesium chloride 0.47%, potassium chloride 0.07%, sodium carbonate 0.02%, magnesium sulfate 0.64% and calcium chloride 0.11%, pH 7.1) was added. Conditions of these nematode and arthropod were observed under microscope. […] Consequently, FKI-1083 substance of the present invention is useful as anthelmintic and insecticide.

In the next test the test system is Candida albicans KF1. Put plainly: MIC by agar plate dilution method on nutrient agar medium. Type of test: cell-based.
The subject of another test is Mucor racemosus IF04581. Described as above. It is filed as cell-based.
In test [3] the test system is Saccharomyces cerevisiae KF26. The description is as above. It is filed as cell-based. The source says:
Minimum inhibitory concentration (MIC) of FKI-1083 substance of the present invention against various microorganisms on nutrient agar medium by agar plate dilution method is shown in Table 3.

The test system of the next test is Escherichia coli NIHJ. The test is described as above. Type of test: cell-based.
Test [4] relates to Staphylococcus aureus ATCC6538p. Described as above. Type of test: cell-based.
In test [5] the test system is Mycobacterium smegmatis ATCC607. The test is described as above. Type of test: cell-based. The following applies: Mycolicibacterium smegmatis.
The subject of test [6] is Bacillus subtilis ATCC6633. The description is as above. It is filed as cell-based.
The subject of test [7] is Pseudomonas aeruginosa IF03080. The test is described as above. It is filed as cell-based.
In the next test the test system is Artemia salina. Put plainly: Anthropodicidal activity, movement of nauplius larvae observed under microscope in 96 well plate. Type of test: in vivo. The protocol:
as §1

For the next test, the target named is NADH-fumarate reductase. Put plainly: NADH-fumarate reductase inhibitory activity, Ascaris suum muscle mitochondria fraction, NADH absorption at 340 nm. Type of test: biochemical. The conditions noted are these: 37° C., pH 7.0, read-out: concentration showing 50% inhibition of NADH-fumarate reductase activity. The protocol: Ascaris suum muscle was homogenized in 120 mM sodium phosphate solution (pH 7.0) and centrifuged at 3000×g for 10 minutes to collect the supernatant solution. The solution was further centrifuged at 10000×g for 20 minutes to collect the precipitate. The precipitate was suspended in 120 mM sodium phosphate solution (pH 7.0) to prepare mitochondria fraction. 50% dimethyl sulfoxide solution of FKI-1083 substance 10 μl was added to 96 well microplate. 120 mM sodium phosphate solution (pH 7.0) 80 μl containing 0.35 mM NADH and 7.2 mM disodium fumarate was added thereto and preincubated at 37° C. for 5 minutes in the microplate reader ELX808 (Bio-Tek Industries Inc., the U.S.). Mitochondria fraction of Ascaris suum muscle 10 μl (0.3 mg protein) was added thereto, incubated at 37° C. for 10 minutes and measured absorption of NADH at 340 nm in every 15 seconds. A gradient of the decrease in absorption at 340 nm was assayed as NADH-fumarate reductase activity. […] Consequently, FKI-1083 substance can be expected as a composition for treatment or prevention of helminthiasis.

Test [8] deals with Micrococcus luteus ATCC9341. Put plainly: MIC by agar plate dilution method on nutrient agar medium. Type of test: cell-based.
In test [9] the test system is Aspergillus niger ATCC6275. Described as above. It is filed as cell-based.

Take `CCCCCCCC/C(C)=C/Cc1oc(OC)c(C)c(=O)c1C` [FKI-1083 substance]: the MIC (in test [1]; in [2]; in the test with Candida albicans KF1; against Mucor racemosus IF04581; in test [3]; in the test on Escherichia coli NIHJ) was more than 100 µg/mL in each case. Besides, the MIC in [4] was 6.25 µg/mL (≈ 19.5 µM); in [5], 12.5 µg/mL (≈ 39 µM); in [6], 6.25 µg/mL (≈ 19.5 µM); in test [7] it was more than 100 µg/mL; in test [8], 6.25 µg/mL (≈ 19.5 µM); in test [9] it was more than 100 µg/mL. Also, the “concentration at which movement was inhibited” value with Caenorhabditis elegans stood at 20 µg/mL; with Artemia salina it was 2 µg/mL. Moreover, at NADH-fumarate reductase, the pIC50 is 8.39.
